According to ChEMBL document CHEMBL1153944, “Exploration of click reaction for the synthesis of modified nucleosides as chitin synthase inhibitors” (Bioorg Med Chem, 2009):
In brackets after ≈: the same amount, converted by molar mass.

Assays:
[1] = test system: Candida albicans; assay: Antifungal activity against Candida albicans by broth microdilution test; type: functional, organism-based
[2] = test system: Cryptococcus neoformans; assay: Antifungal activity against Cryptococcus neoformans by broth microdilution test; type: functional, organism-based
[3] = test system: Fusarium oxysporum; assay: Antifungal activity against Fusarium oxysporum by broth microdilution test; type: functional, organism-based
[4] = test system: Benjaminiella poitrasii; assay: Inhibition of chitin synthase activity in Benjaminiella poitrasii at 4 ug/mL
[5] = test system: Benjaminiella poitrasii; assay: Antifungal activity against Benjaminiella poitrasii assessed as inhibition of germ tube formation at 4 ug/mL after 6 hrs; type: functional
[6] = test system: Benjaminiella poitrasii; assay: Antifungal activity against Benjaminiella poitrasii at 4 ug/mL by standard broth microdilution technique; type: functional

SMILES | IC50 [1] [µg/mL] | MIC90 [1] [µg/mL] | IC50 [2] [µg/mL] | MIC90 [2] [µg/mL] | IC50 [3] [µg/mL] | MIC90 [3] [µg/mL] | inhibition [4] [%] | inhibition at 4 µg/mL [5] [%] | inhibition at 4 µg/mL [6] [%]
C[C@@H]([C@H](N)C(=O)N[C@H](C(=O)O)[C@H]1O[C@@H](n2ccc(=O)[nH]c2=O)[C@H](O)[C@@H]1O)[C@H](O)c1ccc(O)cn1 [NIKKOMYCIN] | 32 (≈ 64.6 µM) | 64 (≈ 129 µM) | 16 (≈ 32.3 µM) | 30 (≈ 60.6 µM) | 6 (≈ 12.1 µM) | 8 (≈ 16.1 µM) | 96.6 | > 95 | 45.5
Cc1ccccc1CC(=O)OCc1cn(C[C@H]2O[C@@H](n3ccc(=O)[nH]c3=O)[C@@H]3OC(C)(C)O[C@@H]32)nn1 | 18 (≈ 36.2 µM) | 32 (≈ 64.3 µM) | 32 (≈ 64.3 µM) | 64 (≈ 129 µM) | 64 (≈ 129 µM) | > 128 | 36.4 | 67.2 | 27.3
CC1(C)O[C@@H]2[C@H](O1)[C@@H](Cn1cc(COC(=O)Cc3ccccc3)nn1)O[C@H]2n1ccc(=O)[nH]c1=O | 18 (≈ 37.2 µM) | 32 (≈ 66.2 µM) | 18 (≈ 37.2 µM) | 31 (≈ 64.1 µM) | 16 (≈ 33.1 µM) | 32 (≈ 66.2 µM) | 71 | 75 | 31.9
OC(Cn1cncn1)(Cn1cncn1)c1ccc(F)cc1F [FLUCONAZOLE] | 14 (≈ 45.7 µM) | 32 (≈ 104 µM) |  | 32 (≈ 104 µM) |  | 8 (≈ 26.1 µM) |  |  | 
CC1(C)O[C@@H]2[C@H](O1)[C@@H](Cn1cc(COc3ccc(F)cc3)nn1)O[C@H]2n1ccc(=O)[nH]c1=O | 9 (≈ 19.6 µM) | > 128 | 64 (≈ 139 µM) | 128 (≈ 279 µM) | 128 (≈ 279 µM) | > 128 | 84.1 | 64.7 | 9.43
CC1(C)O[C@@H]2[C@H](O1)[C@@H](Cn1cc(COc3ccccc3)nn1)O[C@H]2n1ccc(=O)[nH]c1=O | 68 (≈ 154 µM) | > 128 | 4 (≈ 9.06 µM) | 8 (≈ 18.1 µM) | 128 (≈ 290 µM) | > 128 | 77.2 | 45.1 | 21.5
C[C@@H]1[C@H](O)[C@@H](C)/C=C/C=C/C=C/C=C/C=C/C=C/C=C/[C@H](O[C@@H]2O[C@H](C)[C@@H](O)[C@H](N)[C@@H]2O)C[C@@H]2O[C@](O)(C[C@@H](O)C[C@@H](O)[C@H](O)CC[C@@H](O)C[C@@H](O)CC(=O)O[C@H]1C)C[C@H](O)[C@H]2C(=O)O [AMPHOTERICIN B] |  | 2 (≈ 2.16 µM) |  | 16 (≈ 17.3 µM) |  | 16 (≈ 17.3 µM) |  |  | 
COc1ccc(OCc2cn(C[C@H]3O[C@@H](n4ccc(=O)[nH]c4=O)[C@@H]4OC(C)(C)O[C@@H]43)nn2)cc1 | 16 (≈ 33.9 µM) | 24 (≈ 50.9 µM) | 35 (≈ 74.2 µM) | 49 (≈ 104 µM) | 70 (≈ 148 µM) | 124 (≈ 263 µM) | 68.5 | 71.4 | 29.3
CC1(C)O[C@@H]2[C@H](O1)[C@@H](Cn1cc(COC(=O)CCl)nn1)O[C@H]2n1ccc(=O)[nH]c1=O | 32 (≈ 72.4 µM) | 66 (≈ 149 µM) | 125 (≈ 283 µM) | > 128 | 8 (≈ 18.1 µM) | 16 (≈ 36.2 µM) | 75.7 | 60 | 30.2
CC1(C)O[C@@H]2[C@H](O1)[C@@H](Cn1cc(COc3ccc([N+](=O)[O-])cc3)nn1)O[C@H]2n1ccc(=O)[nH]c1=O | > 128 | > 128 | 14 (≈ 28.8 µM) | 32 (≈ 65.8 µM) | 32 (≈ 65.8 µM) | 64 (≈ 132 µM) | 77.8 | 78.2 | 17.4
CC1(C)O[C@@H]2[C@H](O1)[C@@H](Cn1cc(COC(=O)COc3ccccc3)nn1)O[C@H]2n1ccc(=O)[nH]c1=O | 64 (≈ 128 µM) | > 128 | 128 (≈ 256 µM) | > 128 | 16 (≈ 32 µM) | 33 (≈ 66.1 µM) | 74 | 52.5 | 56.2
Cc1cccc(OCc2cn(C[C@H]3O[C@@H](n4ccc(=O)[nH]c4=O)[C@@H]4OC(C)(C)O[C@@H]43)nn2)c1 | 34 (≈ 74.6 µM) | 128 (≈ 281 µM) | 8 (≈ 17.6 µM) | 64 (≈ 141 µM) | 32 (≈ 70.3 µM) | 64 (≈ 141 µM) | 82.1 | 69.2 | 34.4
CC1(C)O[C@@H]2[C@H](O1)[C@@H](Cn1cc(COC(=O)C(=O)c3ccccc3)nn1)O[C@H]2n1ccc(=O)[nH]c1=O | > 128 | > 128 | 16 (≈ 32.2 µM) | > 128 | 55 (≈ 111 µM) | 106 (≈ 213 µM) | 80 | 72 | 51.5
CC1(C)O[C@@H]2[C@H](O1)[C@@H](Cn1cc(COc3cccc4ccccc34)nn1)O[C@H]2n1ccc(=O)[nH]c1=O | 34 (≈ 69.2 µM) | > 128 | 32 (≈ 65.1 µM) | 64 (≈ 130 µM) | 32 (≈ 65.1 µM) | 64 (≈ 130 µM) | 76.9 | 72.7 | 32.4
CC1(C)O[C@@H]2[C@H](O1)[C@@H](Cn1cc(COC(=O)Cc3ccc(O)cc3)nn1)O[C@H]2n1ccc(=O)[nH]c1=O | > 128 | > 128 | 128 (≈ 256 µM) | > 128 | 35 (≈ 70.1 µM) | 57 (≈ 114 µM) | 73.4 | 61.5 | 28.2
CC1(C)O[C@@H]2[C@H](O1)[C@@H](Cn1cc(COC(=O)Cc3ccc(Cl)cc3Cl)nn1)O[C@H]2n1ccc(=O)[nH]c1=O | 32 (≈ 57.9 µM) | > 128 | 32 (≈ 57.9 µM) | 64 (≈ 116 µM) | > 128 | > 128 | 67 | 57.1 | 38.6
CC1(C)O[C@@H]2[C@H](O1)[C@@H](Cn1cc(COc3ccc(Cl)cc3)nn1)O[C@H]2n1ccc(=O)[nH]c1=O | 18 (≈ 37.8 µM) | 32 (≈ 67.2 µM) | 30 (≈ 63 µM) | 57 (≈ 120 µM) | 16 (≈ 33.6 µM) | 32 (≈ 67.2 µM) | 95.1 | 58.1 | 34.6
